The source of these data is a melting point compilation (Tetko et al.; mined from patent text by program, amines drawn as free bases though some values may be those of a salt).

The melting point is the temperature of the solid-liquid transition.

Take `O=C(NCc1ccc(OCc2cccc(F)c2)cc1)C(=NO)c1ccccn1`: the melting point is 146 to 148 °C.

`CCOc1ccc(C(=O)NCc2ccc3c(c2)C(=O)N(C2(C)CCC(=O)NC2=O)C3=O)nc1` (centres undefined) returned a melting point of 145 to 147 °C. In the case of `N#CC(c1cccc(F)c1)N1CCOCC1` (centres undefined), the melting point is 74 to 75 °C.

`O=c1ccc2cccc(-c3cccc4ccccc34)c2[nH]1` had a melting point of 198 to 199 °C. Compound `O=C(Nc1ccc2scnc2c1C1CCN(C/C=C/c2ccc(Cl)cc2)CC1)c1ccnc(Cl)c1` displayed a melting point of 99 to 103 °C.

On to `O=c1[nH]c2cc(Cl)cc(Cl)c2c(=O)n1Cc1cccc([N+](=O)[O-])c1`, for which the melting point lay within 314 to 317 °C. Consider `CC(=O)C(=CS(=O)(=O)N(C)C)c1cccc([N+](=O)[O-])c1`, for which the melting point lay within 115 to 120 °C.

For `CCn1cc(C(=O)NCc2ccc(Cl)cc2)c(=O)c2cc(CCCCO)sc21`, the melting point was 136 to 139 °C. `Cc1cc(CCCCCOc2c(Cl)cc(C(=O)O)cc2Cl)on1` had a melting point of 67 to 69 °C. Compound `CC(=O)Nc1ccc2oc(-c3ccc(OCc4ccccc4)cc3)c(O)c(=O)c2c1` came in with a melting point of 255 to 258 °C. The compound `OC(c1ccccc1)c1ccccc1CNC(=S)NCCc1ccccc1` (centres undefined) had a melting point of 117 to 119 °C. The figure for `COc1ccccc1NC(=O)Nc1nc(N2CCOCC2)nc(N(CCC(=O)O)Cc2ccc(Cl)c(Cl)c2)n1` is 198 to 203 °C; for `O=C1c2ccccc2-c2c1c(N1CCN(c3ccccn3)CC1)nc1ccc(Br)cc21` it is 186 to 188 °C; for `O=C(O)c1cn(C2CCC2)c2c(F)c(F)c(F)cc2c1=O` it is 192 to 194 °C. In the case of `OCC1CCCc2scnc21` (centres undefined) it was 74 to 75 °C; in that of `CC1(C)CCC(C)(C)c2cc(-c3cc(-c4ccc(C(N)=O)cc4)ccc3-c3ccccc3)ccc21`, 220 °C. In turn, `CNC(=O)C(NC(=O)c1cn(C)nc1C(F)(F)F)C(CO)c1ccccc1` (centres undefined) displayed a melting point of 194 °C. Regarding `Cc1nc(-n2cnn(CC3CC3)c2=O)sc1C(N)=O`, the melting point was 180 to 181 °C.

`CC(C)Oc1cccc2oc(-c3ccccc3)cc(=O)c12` gave a melting point of 98 to 99 °C.

Consider `COC(=O)c1ccc(C(O)(c2ccc3[nH]c(=O)cc(-c4cccc(Cl)c4)c3c2)c2cncn2C)cc1` (centres undefined), for which the melting point worked out at 255 °C. With `CC(C)=CCCC(C)CCCC(C)=CC=CC(C)=CC(=O)O` (centres undefined), the melting point is 60 to 62 °C. Consider `COc1ccc(S(=O)(=O)Nc2ccccc2NC(=O)c2cccnc2Cl)cc1`, for which the melting point lay in the range of 133 to 135 °C. On to `COCCOc1cccc(-n2cc(-c3ccc(O)cc3)c3c(N)ncnc32)c1`, for which the melting point lay in the range of 103 to 112 °C. For the compound `O=CNNc1ccc(NC(=S)NCc2ccccc2)cc1`, the melting point lay within 152 to 154 °C.

Compound `CCCCNc1n[nH]c2c1c(=O)n(CCC)c1ccccc21` yielded a melting point of 169 to 172 °C. `Cc1c(C)c2c(c(C)c1N)CC(C)(CSCCO)O2` (centres undefined) registered a melting point of 108 to 109 °C. `COc1ccc(CC2SC(=O)NC2=O)cc1CC(=O)Nc1ccc(Oc2ccccc2)cc1` (centres undefined) returned a melting point of 82 to 84 °C.

On to `O=C(O)Cc1ccc2c(c1)CC(CCNS(=O)(=O)c1ccccc1)C2` (centres undefined), for which the melting point was 102 to 103 °C. The figure for `Cc1cc(SC(C)C)c(NC(=O)CN2CCN(CCSc3nc4cccc([N+](=O)[O-])c4o3)CC2)c(SC(C)C)n1` is 57 to 59 °C.

As to `CN(C)CC1CCCCN1C1c2ccccc2Oc2ccccc21` (centres undefined), the melting point lay within 81 to 83 °C. `Nc1nc(Cl)c2ccccc2n1`: the melting point was 275 to 278 °C. In the case of `COc1cc(Nc2c(C#N)cnc3cc(-c4cnc(CN5CCN(C)CC5)n4C)sc23)c(Cl)cc1Cl`, the melting point fell in the range of 234 to 235 °C. `COc1ccc(N2CCN(c3c(C)c(C)c4c(c3C)C(O)(c3ccc(F)cc3)C(C)(C)O4)CC2)cc1` (centres undefined) displayed a melting point of 142 to 144 °C. The compound `CCSc1nnc(-c2ccccc2)n1Cc1ccc([N+](=O)[O-])cc1` displayed a melting point of 108 °C. The compound `CC(C)(C)NCC(O)COc1cccc2[nH]cc(Cl)c12` (centres undefined) yielded a melting point of 95 to 97 °C.

In turn, `COc1ncc(C=O)cc1Br` yielded a melting point of 94 to 95 °C.

`CCc1[nH]n(C2CCCC2)c2nc(-c3ccc4nccn4c3)nc(=O)c1-2` showed a melting point of over 300 °C. `O=C(O)Cn1cc(C(=O)O)c(=O)c2cc(O)ccc(=O)c21`: the melting point is over 250 °C. Turning to `C[C@]12C[C@H](c3ccc(OCCCCCS(=O)CCCC(F)(F)C(F)(F)F)cc3)[C@@H]3c4ccc(OC5CCCC5)cc4CC[C@H]3[C@@H]1CC[C@@H]2O` (some centres undefined), the melting point came out at 189 °C. Regarding `CCNC(=O)n1nc(Oc2c(Cl)cc(C(F)(F)F)cc2Cl)cc1C`, the melting point lay in the range of 80 to 82 °C. `C/C(=C\C(=O)NCc1cccnc1)c1ccc(OCC(=O)O)cc1` had a melting point of 228 to 229 °C. The figure for `COc1ccc(-c2[nH]nc3c2C(=O)c2c(NC(=O)Nc4ccccc4)cccc2-3)cc1` is over 300 °C. With `CC(C)c1cc(-c2ccc3c(c2)OCO3)[nH]c(=O)c1C#N`, the melting point lay in the range of 266 to 268 °C.

For the compound `CON(C)C(=O)Nc1ccc(OCCc2ccc(C)cc2)cc1`, the melting point lay in the range of 82 to 83 °C. In the case of `O=C(Nc1c[nH]nc1C(=O)NCCc1ccc(Br)cc1)c1ccccn1` it was 266 to 270 °C.

Turning to `Cc1ccc(S(=O)(=O)NCCCCOc2ccc(N)cc2)cc1`, the melting point lay in the range of 176 to 178 °C. In the case of `C[Si](C)(Cc1ccccc1)CN1C(=O)c2ccccc2C1=O` it was 91 to 92 °C. `CN1C(=O)C(c2ccc(OC(F)F)cc2)(c2ccc(F)c(CCCC#N)c2)N=C1N` (centres undefined) displayed a melting point of 65 to 70 °C. `CCCCCC(=O)c1c[nH]c2ccccc12` came in with a melting point of 153 to 154 °C.

`CN(c1ncccc1[N+](=O)[O-])C1CCN(Cc2ccccc2)CC1` showed a melting point of 92 to 95 °C.

For `COc1cc(-c2ccc(S(C)(=O)=O)cc2)c(-c2ccc(F)cc2)c(C(F)(F)F)n1`, the melting point fell in the range of 166 to 168 °C.

Compound `COc1cc(OCc2ccccn2)ccc1/C=C/C(=O)CC(=O)/C=C/c1ccc2ccn(C)c2c1` had a melting point of 191 to 192 °C.

For the compound `CCCCc1nc2c(N)nc3ccc(OCC(=O)N(CC)CC)cc3c2n1C`, the melting point fell in the range of 186 to 188 °C.

`COC(=O)CCc1ccc(-n2c(C)cn(-c3ccc(C(=N)NC(=O)OC)cc3)c2=O)cc1` returned a melting point of 212 to 213 °C. In the case of `O=C(OCC(Cl)(Cl)Cl)ON1C(=O)CCC1=O`, the melting point fell in the range of 98 to 101 °C. In turn, `[N-]=[N+]=Nc1ccc(S(=O)(=O)NCCCCCC(=O)O)cc1` gave a melting point of 126 to 127 °C. The compound `Cc1oc(-c2ccccc2)nc1COc1ccccc1CON=C(CCC(=O)O)c1ccccc1` yielded a melting point of 116 to 117 °C. `COc1ccc(CNC(=O)c2cc3c(=O)n(CCOc4ccc(F)cc4)c(=O)n(C)c3s2)cc1` showed a melting point of 170 to 171 °C. As for `COc1cc(OC)cc(\C(C)=C/C=C/C(C)=C/C(=O)Nc2ccc(O)cc2)c1`, the melting point lay in the range of 162 to 163 °C. `OC(CN1CCC(c2noc3cc(F)ccc23)CC1)CN1CCc2ccccc2C1` (centres undefined) gave a melting point of 179 to 181 °C. The figure for `COc1ccc2nc(SCc3nccc(OCC(F)(F)F)c3OC)[nH]c2c1` is 149 to 150 °C. The figure for `CC(=O)N1CCc2ccc(C(O)CCCN3CCC(c4ccc(Cl)cc4)CC3)cc2CC1` (centres undefined) is 113 to 114 °C; for `COc1ccc(-c2nc(-c3ccc[nH]3)n(CCCBr)c2-c2ccc(OC)cc2)cc1` it is 97 °C. Turning to `CC[C@@H](Cc1ccc(OC)c(C(=O)NCc2ccc(Oc3ccc(F)c(F)c3)cc2)c1)C(=O)O`, the melting point lay in the range of 118 to 120 °C. For the compound `O=C(OCCN1CCOCC1)c1cn2c(n1)COc1ccccc1-2`, the melting point lay within 142 to 143 °C. In the case of `CCC1(C)CCCC(C)(C)N1OC(C)(C)C#N` (centres undefined) it was 41 to 52 °C; in that of `CCOC(=O)c1cnn(-c2ccc(OCCC(C)C)c(C#N)c2)c1`, 125 to 126 °C.

As to `CC(C)(C)OC(=O)N1C[C@H](O)C[C@H]1C(N)=O`, the melting point was in the range of 146 to 148 °C. Compound `CCCN(C)S(=O)(=O)c1nnc(NC(=O)N(C)C)s1` returned a melting point of 152 to 153 °C. The figure for `Clc1cccc(Cl)c1NCC1CC1` is 149 to 158 °C; for `CCCN(c1cc(C)ccn1)c1cccc2c1OC[C@H]2Nc1ccc2c(c1)OC[C@H]2CC(=O)O` it is 146 °C.

Take `CCCc1nc(C(=O)O)c(C(=O)O)[nH]1`: the melting point lay in the range of 261 to 263 °C.

For the compound `CC12CCC3C(CC=C4CCCCC43C)C1CC(F)C2=O` (centres undefined), the melting point fell in the range of 228 to 230 °C.

The compound `COc1cc(C(=O)O)cc(OC)c1OC(C)=O` gave a melting point of 181 to 183 °C.

For `Cc1cc2[nH]c3ncccc3c(=O)n2n1`, the melting point was over 300 °C. `O=c1c(C2=Nc3ccccc3S(=O)(=O)N2)c(O)c2ccccc2n1CCCCO` displayed a melting point of 238 to 240 °C. Consider `Cc1cc(C(=O)O)ccc1-c1c(C)cccc1C`, for which the melting point was in the range of 172 to 173 °C. `N#CCSc1c[nH]c2ccccc12`: the melting point was 52 to 54.5 °C. As for `COc1ccc(Cl)cc1-c1cc(Cl)cc2c1OC(CN)C2` (centres undefined), the melting point was 174 to 176 °C.

Regarding `CNC(=O)C(CC1CCCCC1)NC(=O)Nc1n[nH]c(=S)s1` (centres undefined), the melting point was 246 to 247 °C.

For the compound `COc1cc(C(=O)c2nccn2C)cc([N+](=O)[O-])c1OC`, the melting point was in the range of 144 to 145 °C. `CCCCS(=O)(=O)Nc1ccccc1OCc1ccc2ccccc2n1`: the melting point is 93 to 94 °C.

As for `N#Cc1ccc2c(c1)CC[C@@H]1CC(=O)CC[C@@]21Cc1ccccc1`, the melting point is 128 to 129 °C. `Cc1cccc(N2CCN(Cc3c[nH]c4ncccc34)CC2)c1`: the melting point was 156 to 158 °C. In turn, `CNc1nc(-c2ccc(OCc3ccccc3)cc2)no1` came in with a melting point of 148 to 150 °C.

As to `COC(=O)c1c(Br)ccc2nn(C)cc12`, the melting point was in the range of 103 to 104 °C.

Regarding `CN1C(=O)Nc2cc(Cl)c(Cl)cc2C1(O)C(=O)NC(N)=S` (centres undefined), the melting point was 225 to 228 °C. `CCc1cnc(SC(C)(C)C)c(C#N)c1` yielded a melting point of 63 to 66 °C. Take `COc1ccc(Cl)cc1C1(F)C(=O)Nc2cc(I)ccc21` (centres undefined): the melting point was 205 to 210 °C.
